# Measurements published in the supplement of paper PMC10307832.
# What was measured:
# Test in all cases: relative viability (nuclei count vs DMSO), 5 days (fraction); higher = more cells survive
# LU99A = system: LU99A
# Procedure, shortened: (§1)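 For relative viability, nuclei counts in treated wells were divided by those in vehicle wells. Lung cancer cell lines had been pin-tool dosed in 1536-well plates the day after seeding and cultured for 5 days, then fixed and stained in one step (final 0.05% Triton X-100, 1% formaldehyde, 1 ug/ml Hoechst) and imaged at 4×. Doses were one drug alone or a fixed anchor-drug dose plus five library-drug doses (not always all listed) in √10 steps, and values are duplicate-plate medians.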
# NCI-H1993 = system: NCI-H1993
# Procedure, shortened: as §1
# NCI-H1755 = system: NCI-H1755
# Procedure, shortened: as §1
# HCC-366 = system: HCC-366
# Procedure, shortened: as §1
# LC-2-ad = system: LC-2-ad
# Procedure, shortened: as §1
# HCC-827 = system: HCC-827
# Procedure, shortened: as §1
# HCC-78 = system: HCC-78
# Procedure, shortened: as §1
# COR-L23 = system: COR-L23
# Procedure, shortened: as §1
# RERF-LC-KJ = system: RERF-LC-KJ
# Procedure, shortened: as §1
# COR-L 105 = system: COR-L 105
# Procedure, shortened: as §1
# 201T = system: 201T
# Procedure, shortened: as §1
# EKVX = system: EKVX
# Procedure, shortened: as §1
# HCC-15 = system: HCC-15
# Procedure, shortened: as §1
# NCI-H1944 = system: NCI-H1944
# Procedure, shortened: as §1
# NCI-H1650 = system: NCI-H1650
# Procedure, shortened: as §1
# LXF-289 = system: LXF-289
# Procedure, shortened: as §1
# NCI-H1975 = system: NCI-H1975
# Procedure, shortened: as §1
# SK-LU-1 = system: SK-LU-1
# Procedure, shortened: as §1
# NCI-H3122 = system: NCI-H3122
# Procedure, shortened: as §1
# HARA = system: HARA
# Procedure, shortened: as §1
# NCI-H1734 = system: NCI-H1734
# Procedure, shortened: as §1
# BEN = system: BEN
# Procedure, shortened: as §1
smiles,measurement,setting,value
Cc1cnc(-c2cnc(NCCNc3ccc(C#N)cn3)nc2-c2ccc(Cl)cc2Cl)[nH]1 + CC(=O)c1c(C)c2cnc(Nc3ccc(N4CCNCC4)cn3)nc2n(C2CCCC2)c1=O [Palbociclib] (partner 0.5 µM),relative viability,LU99A; first compound 0.08 µM,0.375
same,relative viability,LU99A; first compound 0.253 µM,0.388
same,relative viability,LU99A; first compound 0.8 µM,0.442
same,relative viability,LU99A; first compound 2.53 µM,0.389
same,relative viability,NCI-H1993; first compound 0.08 µM,0.718
same,relative viability,NCI-H1993; first compound 0.253 µM,0.566
same,relative viability,NCI-H1993; first compound 0.8 µM,0.621
same,relative viability,NCI-H1993; first compound 2.53 µM,0.679
same,relative viability,NCI-H1755; first compound 0.08 µM,0.418
same,relative viability,NCI-H1755; first compound 0.253 µM,0.443
same,relative viability,NCI-H1755; first compound 0.8 µM,0.446
same,relative viability,NCI-H1755; first compound 2.53 µM,0.438
same,relative viability,HCC-366; first compound 0.08 µM,0.404
same,relative viability,HCC-366; first compound 0.253 µM,0.331
same,relative viability,HCC-366; first compound 0.8 µM,0.391
same,relative viability,HCC-366; first compound 2.53 µM,0.312
same,relative viability,LC-2-ad; first compound 0.08 µM,0.473
same,relative viability,LC-2-ad; first compound 0.8 µM,0.485
same,relative viability,LC-2-ad; first compound 2.53 µM,0.436
same,relative viability,HCC-827; first compound 0.08 µM,0.48
same,relative viability,HCC-827; first compound 0.253 µM,0.371
same,relative viability,HCC-827; first compound 0.8 µM,0.484
same,relative viability,HCC-827; first compound 2.53 µM,0.387
same,relative viability,HCC-78; first compound 0.08 µM,0.463
same,relative viability,HCC-78; first compound 0.253 µM,0.441
same,relative viability,HCC-78; first compound 0.8 µM,0.466
same,relative viability,HCC-78; first compound 2.53 µM,0.467
same,relative viability,COR-L23; first compound 0.08 µM,0.328
same,relative viability,COR-L23; first compound 0.253 µM,0.266
same,relative viability,COR-L23; first compound 0.8 µM,0.272
same,relative viability,COR-L23; first compound 2.53 µM,0.264
same,relative viability,RERF-LC-KJ; first compound 0.08 µM,1.18
same,relative viability,RERF-LC-KJ; first compound 0.253 µM,0.905
same,relative viability,RERF-LC-KJ; first compound 0.8 µM,1.01
same,relative viability,RERF-LC-KJ; first compound 2.53 µM,0.956
same,relative viability,COR-L 105; first compound 0.08 µM,0.397
same,relative viability,COR-L 105; first compound 0.253 µM,0.401
same,relative viability,COR-L 105; first compound 0.8 µM,0.382
same,relative viability,COR-L 105; first compound 2.53 µM,0.404
same,relative viability,201T; first compound 0.08 µM,0.384
same,relative viability,201T; first compound 0.8 µM,0.362
same,relative viability,201T; first compound 2.53 µM,0.38
same,relative viability,EKVX; first compound 0.08 µM,0.493
same,relative viability,EKVX; first compound 0.253 µM,0.316
same,relative viability,EKVX; first compound 0.8 µM,0.417
same,relative viability,EKVX; first compound 2.53 µM,0.444
same,relative viability,HCC-15; first compound 0.08 µM,0.689
same,relative viability,HCC-15; first compound 0.253 µM,0.543
same,relative viability,HCC-15; first compound 0.8 µM,0.69
same,relative viability,HCC-15; first compound 2.53 µM,0.724
same,relative viability,NCI-H1944; first compound 0.08 µM,0.341
same,relative viability,NCI-H1944; first compound 0.8 µM,0.366
same,relative viability,NCI-H1944; first compound 2.53 µM,0.322
same,relative viability,NCI-H1650; first compound 0.08 µM,0.368
same,relative viability,NCI-H1650; first compound 0.253 µM,0.306
same,relative viability,NCI-H1650; first compound 0.8 µM,0.306
same,relative viability,NCI-H1650; first compound 2.53 µM,0.258
same,relative viability,LXF-289; first compound 0.08 µM,0.66
same,relative viability,LXF-289; first compound 0.253 µM,0.565
same,relative viability,LXF-289; first compound 0.8 µM,0.571
same,relative viability,LXF-289; first compound 2.53 µM,0.682
same,relative viability,NCI-H1975; first compound 0.08 µM,0.69
same,relative viability,NCI-H1975; first compound 0.253 µM,0.519
same,relative viability,NCI-H1975; first compound 0.8 µM,0.487
same,relative viability,NCI-H1975; first compound 2.53 µM,0.301
same,relative viability,SK-LU-1; first compound 0.08 µM,0.417
same,relative viability,SK-LU-1; first compound 0.253 µM,0.474
same,relative viability,SK-LU-1; first compound 0.8 µM,0.337
same,relative viability,SK-LU-1; first compound 2.53 µM,0.524
same,relative viability,NCI-H3122; first compound 0.08 µM,0.178
same,relative viability,NCI-H3122; first compound 0.8 µM,0.181
same,relative viability,NCI-H3122; first compound 2.53 µM,0.188
same,relative viability,HARA; first compound 0.08 µM,0.296
same,relative viability,HARA; first compound 0.253 µM,0.288
same,relative viability,HARA; first compound 0.8 µM,0.262
same,relative viability,HARA; first compound 2.53 µM,0.241
same,relative viability,NCI-H1734; first compound 0.08 µM,0.403
same,relative viability,NCI-H1734; first compound 0.253 µM,0.342
same,relative viability,NCI-H1734; first compound 0.8 µM,0.391
same,relative viability,NCI-H1734; first compound 2.53 µM,0.189
same,relative viability,BEN; first compound 0.08 µM,0.495
same,relative viability,BEN; first compound 0.253 µM,0.506
same,relative viability,BEN; first compound 0.8 µM,0.687
same,relative viability,BEN; first compound 2.53 µM,0.545
